Among the test systems are OVCAR-8 ovarian; SW-620 colon; NCI/ADR-RES ovarian; HL-60(TB) leukemia; SK-MEL-2 melanoma; A549 NSCLC; A498 renal; BT-549 breast; CCRF-CEM leukemia; UACC-257 melanoma; T-47D breast.
Holding throughout (test): inhibition of tumour cell growth, NCI panel, 48 h

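48-hour exposure; five concentrations; linearly interpolated endpoints. The concentration for full growth arrest is given as TGI.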

`CC1N(C)C(=O)OC12CCN(CCCC(=O)c1ccc(F)cc1)CC2` (configuration not stated): the TGI in the assay with OVCAR-8 ovarian, in the assay with SW-620 colon, with NCI/ADR-RES ovarian, with HL-60(TB) leukemia, in the assay on SK-MEL-2 melanoma and with A549 NSCLC was > 100 µM in each case. Further, the TGI with A498 renal, in the assay with BT-549 breast, with CCRF-CEM leukemia, in the assay with UACC-257 melanoma and in the assay on T-47D breast was > 100 µM throughout.

For `CC1NC(/C(=C/c2ccccc2O)NC(=O)c2ccccc2)OC1=O` (configuration not stated), the TGI in the assay with OVCAR-8 ovarian, in the assay with SW-620 colon, in the assay with NCI/ADR-RES ovarian, with HL-60(TB) leukemia, in the assay with SK-MEL-2 melanoma and in the assay on A549 NSCLC was > 50 µM throughout. Moreover, the TGI with A498 renal, in the assay with BT-549 breast, with CCRF-CEM leukemia, in the assay on UACC-257 melanoma and with T-47D breast was > 50 µM throughout.

As for `CC(C)/C=N\n1c(N)c(C#N)c(C#N)c1C(C)C`, the TGI in the assay on OVCAR-8 ovarian is 63.7 µM; in the assay with SW-620 colon it was > 100 µM; with NCI/ADR-RES ovarian, 66.3 µM; in the assay on HL-60(TB) leukemia, > 100 µM; in the assay with SK-MEL-2 melanoma, 58 µM; with A549 NSCLC, > 100 µM. Further, the TGI in the assay with A498 renal was 69.5 µM; in the assay with BT-549 breast it was > 100 µM; with CCRF-CEM leukemia, > 100 µM; in the assay with UACC-257 melanoma, 50.3 µM; in the assay on T-47D breast, 66.3 µM.

Regarding `CCCCc1c2c(nc3c1CCC/C3=C\c1ccccc1)C(=O)C(CN(C)C)CC2` (configuration not stated), the TGI amounted to 46.1 µM in the assay on OVCAR-8 ovarian; 31.5 µM with SW-620 colon; 91.7 µM in the assay with NCI/ADR-RES ovarian; 18.2 µM in the assay on HL-60(TB) leukemia; 39.4 µM in the assay with SK-MEL-2 melanoma; 37.3 µM in the assay with A549 NSCLC. Besides, the TGI turned out to be 33.2 µM with A498 renal; 19.8 µM in the assay on BT-549 breast; 33 µM in the assay with CCRF-CEM leukemia; 33.7 µM in the assay with UACC-257 melanoma; 14 µM with T-47D breast.

In the case of `CC1(C)C(=O)N=C(N)N1C(=O)OCc1ccccc1`, the TGI in the assay with OVCAR-8 ovarian, in the assay with SW-620 colon, in the assay with NCI/ADR-RES ovarian, in the assay with HL-60(TB) leukemia, in the assay on SK-MEL-2 melanoma and in the assay with A549 NSCLC was > 100 µM in each case. In addition, the TGI in the assay with A498 renal, with BT-549 breast, in the assay on CCRF-CEM leukemia, in the assay on UACC-257 melanoma and in the assay with T-47D breast was > 100 µM in each case.

Regarding `OC1CC(O)c2c(Cl)sc(Cl)c21` (configuration not stated), the TGI with OVCAR-8 ovarian is > 100 µM; in the assay with SW-620 colon, > 100 µM; in the assay on NCI/ADR-RES ovarian, > 100 µM; in the assay on HL-60(TB) leukemia, > 100 µM; in the assay on SK-MEL-2 melanoma, 49.4 µM; with A549 NSCLC it was 89.2 µM. The TGI with A498 renal was > 100 µM; in the assay with BT-549 breast it was > 100 µM; in the assay with CCRF-CEM leukemia, > 100 µM; with UACC-257 melanoma, 54.9 µM; in the assay with T-47D breast, > 100 µM.

Regarding `O=c1c2cccnc2nc2ccc3c[nH][nH]c3c12`, the TGI in the assay on OVCAR-8 ovarian, in the assay on SW-620 colon, with NCI/ADR-RES ovarian, in the assay with HL-60(TB) leukemia, with SK-MEL-2 melanoma and in the assay with A549 NSCLC was > 10 µM each time. Also, the TGI in the assay on A498 renal, with BT-549 breast, with CCRF-CEM leukemia, in the assay with UACC-257 melanoma and with T-47D breast was > 10 µM throughout.

For `CCOC(=O)CCC(NC(=O)c1ccc(Nc2nc3cc(C(F)(F)F)ccc3nc2-c2ccccc2)cc1)C(=O)OCC` (configuration not stated), the TGI with OVCAR-8 ovarian, in the assay on SW-620 colon, with NCI/ADR-RES ovarian, in the assay with HL-60(TB) leukemia, with SK-MEL-2 melanoma and in the assay with A549 NSCLC was > 100 µM in each case. Also, the TGI in the assay on A498 renal, with BT-549 breast, in the assay with CCRF-CEM leukemia, with UACC-257 melanoma and with T-47D breast was > 100 µM each time.

Consider `CC(=O)Nc1ccc2c(C)c3c4ccccc4n(C)c3nc2n1`, for which the TGI in the assay with OVCAR-8 ovarian is > 100 µM; in the assay with SW-620 colon, 46.6 µM; in the assay on NCI/ADR-RES ovarian, > 100 µM; in the assay with HL-60(TB) leukemia, 41.2 µM; with SK-MEL-2 melanoma it was 47.6 µM; with A549 NSCLC it was 59.8 µM. In addition, the TGI is 46.2 µM with A498 renal; 84.8 µM in the assay with BT-549 breast; 80.5 µM in the assay with CCRF-CEM leukemia; 57.5 µM in the assay with UACC-257 melanoma; > 100 µM in the assay on T-47D breast.

Regarding `O=C1CC2(CCC(O)(c3ccc(Cl)cc3)C(C(=O)c3ccc(Cl)cc3)C2)C(=O)c2ccccc2N1` (configuration not stated), the TGI was > 62.4 µM in the assay on OVCAR-8 ovarian; > 100 µM in the assay on SW-620 colon; > 44.5 µM with NCI/ADR-RES ovarian; > 31.6 µM in the assay with HL-60(TB) leukemia; > 100 µM in the assay on SK-MEL-2 melanoma; > 50.8 µM with A549 NSCLC. Further, the TGI in the assay on A498 renal was 52.6 µM; with BT-549 breast it was 49.9 µM; with CCRF-CEM leukemia, 26.6 µM; in the assay with UACC-257 melanoma it was 62.6 µM; in the assay with T-47D breast, > 72.3 µM.

Turning to `COc1ccc(OC)c2nc3c(C(=O)NCCN(C)C)cccc3nc12`, the TGI is 17.7 µM with OVCAR-8 ovarian; 21.7 µM in the assay with SW-620 colon; > 61.1 µM with NCI/ADR-RES ovarian; 16.5 µM in the assay with HL-60(TB) leukemia; 25.9 µM with SK-MEL-2 melanoma; > 34.7 µM in the assay with A549 NSCLC. Further, the TGI in the assay on A498 renal is 29.4 µM; with BT-549 breast, 33 µM; in the assay on CCRF-CEM leukemia, 11 µM; with UACC-257 melanoma it was 15.3 µM; in the assay on T-47D breast, > 100 µM.

For `C/C=C(/C)C(=O)O[C@H]1C(C)=C[C@]23C(=O)[C@@H](C=C(COC(C)=O)[C@@H](O)[C@]12O)[C@H]1[C@@H](C[C@H]3C)[C@@]1(C)OC(=O)/C(C)=C\C`, the TGI with OVCAR-8 ovarian came to 11.3 µM; with SW-620 colon, 9.76 µM; in the assay on NCI/ADR-RES ovarian it was 6.82 µM; in the assay with HL-60(TB) leukemia, 5.67 µM; in the assay with SK-MEL-2 melanoma, 6.01 µM; with A549 NSCLC, 9.34 µM. Moreover, the TGI came out at 6.07 µM with A498 renal; 5.73 µM in the assay with BT-549 breast; 5.21 µM with CCRF-CEM leukemia; 10.4 µM in the assay on UACC-257 melanoma; 3.29 µM in the assay with T-47D breast.

(Values after PubChem BioAssay (NCI).)
